Active and inactive are the calls of the source.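 Rule for the calls: active = AC50 no more than ten times the top concentration tested, that is within one log above it; inconclusive = flat curve fit with activity between 30% and 70%, or invalid poor fit; inactive = AC50 beyond ten times the top tested dose.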
tested on: S. cerevisiae Mot1-301 ts growth rescue, BacTiter-Glo ATP luminescence; assay: restored Mot1-301 yeast growth at 38.5C – whole organism, S. cerevisiae, Mot1-301 ts mutant, luminescence, dose retest, SUMOylation pathway inhibitor project, confirmation (AID 463204);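 note: growth at restrictive 38.5 degrees C of Mot1-301 OY566 strain; actives raise luminescence by restoring growth of the ts mutant at high temperature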

Row | SMILES | AC50
1 | CNC(=O)Nc1cc(NC(=O)NC)cc(C(F)(F)F)c1 | > 42 µM (inactive)
2 | NNc1nc2sc3c(c2c(=O)n1-c1ccccc1)CCCC3 | > 42 µM (inactive)
3 | COc1ccc2c(c1)[C@H]1[C@H](CO2)[C@H](c2ccccc2)[C@]2(C)C(=O)Nc3cc(C)ccc3C(=O)N12 | 5.3 µM
4 | COC(=O)C(NC(C)=O)(Nc1nc2ccc(S(C)(=O)=O)cc2s1)C(F)(F)F (stereo not given) | > 42 µM (inactive)
5 | CCOC(=O)N1CCN(c2cc3[nH]c(=S)[nH]c3cc2F)CC1 | > 42 µM (inactive)
6 | c1ccc(C(c2ccccc2)N2CCN(C(c3ccccn3)c3nnnn3C3CCCC3)CC2)cc1 (stereo not given) | > 42 µM (inactive)
7 | CCOC(=O)c1cc2c(ccn2-c2ccc(F)cc2)n1CC(=O)N1CCN(C(=O)c2ccco2)CC1 | > 42 µM (inactive)
8 | CCn1c(SCC(=O)Nc2ccc(NC(=O)c3ccco3)cc2)nnc1-c1cccs1 | > 42 µM (inactive)
9 | Cc1ccccc1NC1=NCCCS1 | > 42 µM (inactive)
10 | CC(=O)Nc1cccc(OCC(=O)NS(=O)(=O)c2ccc(C)cc2)c1 | > 42 µM (inactive)
11 | Cc1cc(C)nc(-n2nc(C)cc2NC(=O)CNCc2ccccc2)n1 | > 42 µM (inactive)
12 | CN(C(=O)COc1cc(=O)n(C)c2ccccc12)c1ccc(Cl)cc1 | > 42 µM (inactive)
13 | Cc1ccc(S(=O)(=O)/N=C(/Nc2ccc([N+](=O)[O-])cc2[N+](=O)[O-])c2ccccc2)cc1 | 15.8 µM
14 | C=CC[N+]1(CC#Cc2ccccc2)CCCC1 | > 42 µM (inactive)
15 | CCc1ccc2nc(-c3cccc(C)c3)nc(SCC(=O)NCC3CCCO3)c2c1 (stereo not given) | > 42 µM (inactive)
16 | Cc1ccc(C)c(N2CCN(C(c3ccncc3)c3nnnn3Cc3ccccc3)CC2)c1 (stereo not given) | > 21 µM (inactive)
17 | O=C(/C=C/c1ccc(Cl)cc1Cl)Nc1cccc(S(=O)(=O)NC2=NCCCCC2)c1 | > 42 µM (inactive)
18 | COC(=O)CCCC(=O)NCC1(N(C)Cc2ccccc2)Cc2ccccc2C1 | > 42 µM (inactive)
19 | Cc1ccccc1Nc1cc(=O)oc2ccccc12 | > 42 µM (inactive)
20 | COc1cc(COc2ccc3c(C)c(CC(=O)O)c(=O)oc3c2C)cc(OC)c1OC | > 42 µM (inactive)
21 | O=C(Nc1ccccn1)c1ccc(CN(c2ccccc2)S(=O)(=O)c2ccccc2)cc1 | > 42 µM (inactive)
22 | O=C(Nc1ccsc1C(=O)O)c1cccc(C(F)(F)F)c1 | > 42 µM (inactive)
23 | CC1(C)CC(=O)C(C=Nc2ccc(O)c(N=CC3=C(O)CC(C)(C)CC3=O)c2)=C(O)C1 | > 42 µM (inactive)
24 | Fc1ccc2c(c1)nnn2C1CCN(Cc2nnnn2C2CCCCC2)CC1 | > 42 µM (inactive)
25 | Cc1cccc(N(Cc2ccccc2)C(=O)CSC(C)C(=O)Nc2cc(C)on2)c1 (stereo not given) | > 42 µM (inactive)

Row | SMILES | AC50
26 | CCCC(=O)Nc1ccc(Sc2ccc([N+](=O)[O-])cc2)cc1 | 30.9 µM
27 | Cn1c(CSc2nc3ccccc3s2)nnc1SCC(=O)NCCN1CCOCC1 | > 42 µM (inactive)
28 | COc1cccc(CNC(=O)CCCn2nc(C)c3c(C)n(-c4ccccc4)nc3c2=O)c1 | > 42 µM (inactive)
29 | CC(=Nc1ccccc1)C1=C(O)CC(C)(C)CC1=O | > 42 µM (inactive)
30 | Cc1ccc(C(C[N+](=O)[O-])c2c(C)[nH]n(-c3ccccc3)c2=O)cc1 (stereo not given) | 6.06 µM
31 | Cc1ccnc(NC(=O)CC(c2ccccc2)c2ccccc2)n1 | 29.8 µM
32 | Cc1ccc(Oc2ccccc2NC(=O)C2=COCCO2)cc1 | > 42 µM (inactive)
33 | CCn1nnc(-c2ccccc2NC(=O)c2cnccn2)n1 | > 42 µM (inactive)
34 | O=C(NCc1cccnc1)C1CCN(S(=O)(=O)c2cccnc2)CC1 | > 42 µM (inactive)
35 | Cc1nc2ccc(S(=O)(=O)NC(CC(C)C)C(=O)O)cc2s1 (stereo not given) | > 42 µM (inactive)
36 | Cc1onc(-c2ccccc2)c1C(=O)N/N=C/C=C/c1ccccc1 | > 42 µM (inactive)
37 | Cc1ccc(-c2nnc(SCC#N)n2N)cc1 | > 42 µM (inactive)
38 | COc1ccc(-c2cn(-c3ccc(C)cc3)c(=O)n2CC(=O)Nc2ccc(OC)c(OC)c2)cc1 | > 42 µM (inactive)
39 | CC(=O)N1CCc2cc(S(=O)(=O)NCCC3=CCCCC3)ccc21 | > 42 µM (inactive)
40 | CCCNc1nc2ccccc2c(=O)[nH]1 | > 42 µM (inactive)
41 | COc1ccc(CN(CC(=O)NCc2ccco2)C(=O)CCC(=O)Nc2nccs2)cc1 | > 42 µM (inactive)
42 | CCOC(=O)c1sc(NC(=O)CSc2n[nH]c(-c3ccc(Cl)cc3Cl)n2)c(C#N)c1C | > 42 µM (inactive)
43 | CCc1ccc(-c2nc(SCC(=O)N3CCOCC3)n[nH]2)cc1 | > 42 µM (inactive)
44 | CCCCNC(=O)N1CCC(CCC(=O)N(C)Cc2ccccc2)CC1 | > 42 µM (inactive)
45 | COC(=O)C1C2C=CC3(CN(CCc4ccccc4)C(=O)C13)O2 (stereo not given) | > 21 µM (inactive)
46 | CCc1ccccc1NC(=O)N[C@@H](C)C(=O)OC | > 42 µM (inactive)
47 | O=c1nc(-c2ccccc2)cn[nH]1 | > 42 µM (inactive)
48 | COc1cccc(Cn2cnc3c(NS(=O)(=O)c4cccc(Cl)c4Cl)c(C)c(C)cc32)c1 | > 110 µM (inactive)
49 | CCOc1ccc(Cl)cc1S(=O)(=O)N1CCC(C(=O)NCc2cccnc2)CC1 | > 42 µM (inactive)
50 | CN(C)c1oc(-c2ccccc2Cl)nc1S(=O)(=O)c1ccccc1 | > 42 µM (inactive)

Row | SMILES | AC50
51 | COc1cccc(/C=C2/C(=O)NN(c3ccc(Br)cc3)C2=O)c1O | > 42 µM (inactive)
52 | O=C(CSc1nc(O)cc(=O)n1-c1ccccc1)NC1CCCCC1 | > 42 µM (inactive)
53 | CC(C)(C)C(=O)NC1(C(F)(F)F)NC(=O)N(c2ccccc2F)C1=O (stereo not given) | > 42 µM (inactive)
54 | CC(=O)c1cccc(CN2CCCC(N3CCN(c4ccccc4F)CC3)C2)c1 (stereo not given) | > 42 µM (inactive)
55 | O=C(OCc1nnc(-c2ccccc2)o1)c1ccc([N+](=O)[O-])o1 | 4.12 µM
56 | COc1cccc(CN(C)C(=O)C2CCC(=O)N(Cc3cccc(F)c3)C2)c1 (stereo not given) | > 42 µM (inactive)
57 | Cc1ccc2nc3c(cc(C(=O)NCCN4CCOCC4)c(=N)n3CCCN3CCOCC3)c(=O)n2c1 | > 42 µM (inactive)
58 | CCCCOCCCNS(=O)(=O)Cc1ccccc1 | > 42 µM (inactive)
59 | CC(Oc1ccc([N+](=O)[O-])cc1)C(=O)NCCCN1CCOCC1 (stereo not given) | > 42 µM (inactive)
60 | N#Cc1c(-c2ccco2)cc(-c2cccnc2)nc1N | > 42 µM (inactive)
61 | CCn1c(SC(=O)NC2CCCCC2)nnc1-c1cccs1 | 11.6 µM
62 | CCOCCCNCc1ccc(OCc2ccc(F)cc2)c(OC)c1 | > 42 µM (inactive)
63 | CC(=O)N1N=C(c2ccc(C(C)(C)C)cc2)OC1(C)C | > 42 µM (inactive)
64 | CCN(CC)CCCN(Cc1cc2cc(OC)ccc2[nH]c1=O)C(=O)Nc1ccc(F)cc1 | > 42 µM (inactive)
65 | O=C(Nc1cccc(N=Cc2cc(Br)cc(Br)c2O)c1)c1ccco1 | 2.81 µM
66 | CCN(CCn1cccn1)C(=O)C1CCC(=O)N(CCc2cccc(F)c2)C1 (stereo not given) | > 42 µM (inactive)
67 | O=C(CCSc1nnc(-c2ccncc2)o1)Nc1ccc(Cl)cc1 | > 42 µM (inactive)
68 | Cc1nc(-c2ccncc2)sc1C(=O)Nc1ccc(Br)cc1 | > 42 µM (inactive)
69 | C(=N\N1CCN(C2c3ccccc3-c3ccccc32)CC1)/c1ccncc1 | 13.8 µM
70 | COc1ccccc1NC(NC(=O)c1ccco1)C(=O)c1ccccc1 (stereo not given) | > 42 µM (inactive)
71 | CCCCc1nnc(NC(=O)CSc2nc(O)c(-c3ccccc3)c(=O)[nH]2)s1 | > 42 µM (inactive)
72 | O=C(NNS(=O)(=O)c1c(F)cc(F)c(Cl)c1F)C12CC3CC(CC(C3)C1)C2 | 3.45 µM
73 | CS(=O)(=O)NCc1ccc(C(=O)NC2CCCCC2)cc1 | > 42 µM (inactive)
74 | Cn1c(CCN2CCOCC2)nc2cc(NC(=O)COc3ccccc3)ccc21 | > 42 µM (inactive)
75 | N[C@@H](Cc1ccc(O)c(I)c1)C(=O)O | > 42 µM (inactive)

Row | SMILES | AC50
76 | CC(C)c1cccc(OCCCCN(C)C)c1 | > 42 µM (inactive)
77 | CN(C)c1cccc(C(=O)Nc2cc(C(F)(F)F)ccc2-n2cnc3ccccc32)c1 | > 42 µM (inactive)
78 | Cc1cc(S(=O)(=O)N2CCCCC2CCNC(=O)C(=O)NCC2CCCO2)ccc1F (stereo not given) | > 42 µM (inactive)
79 | O=C(NCCc1c[nH]c2ccccc12)c1cc(S(=O)(=O)N2CCCCC2)ccc1N1CCOCC1 | > 42 µM (inactive)
80 | O=C(Cc1ccc(F)cc1)Nc1nc(-c2ccc(F)cc2)cs1 | > 42 µM (inactive)
81 | Cc1cc(C(=O)NN)n[nH]1 | > 42 µM (inactive)
82 | CCOC(=O)c1c(/N=C/C2C(=O)CCCC2=O)sc2c1CCCC2 | > 42 µM (inactive)
83 | Cc1nn(Cc2ccc(C(=O)Nc3ccccc3C(F)(F)F)o2)c(C)c1Br | > 42 µM (inactive)
84 | CC1CCCCN1C(=O)C(Cc1ccccc1)N1C(=O)C2CCCCC2C1=O (stereo not given) | 32.5 µM
85 | Cc1ccc(C(=O)NNc2ncnc3c2cnn3C)cc1 | > 42 µM (inactive)
86 | COc1cccc(CN2CCN(C(=O)c3cccc4ccccc34)CC2)c1OC | > 42 µM (inactive)
87 | O=C(O)c1ccc(S(=O)(=O)N2CCN(c3ccccn3)CC2)cc1 | > 42 µM (inactive)
88 | N#C/C(=C\c1cn(-c2ccccc2)nc1-c1cccnc1)c1nnc2n1CCCCC2 | > 42 µM (inactive)
89 | Cc1ccc(NC(=S)NNC(=O)c2ccc(N3CCOCC3)c([N+](=O)[O-])c2)cc1C | > 42 µM (inactive)
90 | N#Cc1ccc2[nH]c(CO)c(-c3ccccc3)c2c1 | > 42 µM (inactive)
91 | CCCCn1c(SCC(=O)Nc2cc(C)on2)nnc1-c1ccco1 | > 42 µM (inactive)
92 | CC(=O)c1ccc2noc(-c3ccc(F)cc3)c2c1 | > 42 µM (inactive)
93 | COc1cc(CN2CCC(Oc3cc(C(=O)NC4CC4)ccc3OC)CC2)cc(OC)c1 | 34.8 µM
94 | CCn1c(SCC(=O)NC2CCCCC2)nnc1C(C)NC(=O)c1ccccc1F (stereo not given) | > 42 µM (inactive)
95 | O=C(O)CCc1ccc(-c2cccs2)n1NC(=O)c1cccs1 | > 42 µM (inactive)
96 | Cc1ccc(C(=O)NCC(=O)Nc2ccc3c(c2)OCCO3)cc1 | > 21 µM (inactive)
97 | CCNC(=O)C1CC(=O)N(Cc2ccc3c(c2)OCO3)C(=Nc2ccc(F)cc2)S1 (stereo not given) | > 42 µM (inactive)
98 | O=C(NNc1ccccc1)C(CCO)C(=O)NNc1ccccc1 | > 42 µM (inactive)
99 | CC1=CC(=O)C=CC1(C)C(Cl)(Cl)Cl (stereo not given) | > 42 µM (inactive)
100 | Cc1nc(CC(=O)N/N=C/c2ccc(OCC(=O)O)cc2)cs1 | > 42 µM (inactive)

From PubChem BioAssay AID463204 (Broad Institute, 2010)
